Results published in patent US6191144A, “Method of using angiotensin converting enzyme inhibitor to stimulate angiogenesis” (priority 1999, dated 2001).
“Also recorded” adds a separate entry of the source.

Key:
coronary microvessels = conditions: Greiss reaction (Circulation, 95:176-182); cited from earlier work
B2-receptor = B2-receptor antagonist; cited from earlier work
[1] = tested on: rabbit ischemic hindlimb model; assay: Vascular resistance ratio at internal iliac artery after vasoactive agents; conditions: D40
[2] = tested on: rabbit ischemic hindlimb model; assay: Capillary density in ischemic hindlimb muscles; conditions: D40; medial thigh muscles of ischemic limb
[3] = tested on: rabbit ischemic hindlimb model; assay: Angiographic score of collateral development; conditions: D40; medial thigh
[4] = tested on: rabbit ischemic hindlimb model; assay: Vasomotor reactivity: blood flow ratio in internal iliac artery after vasoactive agents; assay type: in vivo, New Zealand White rabbits; conditions: D40; for blood flow ratio (stimulated flow/basal flow), acetylcholine: acetylcholine 1.5 μg/min/kg intra-arterial; for blood flow ratio (stimulated flow/basal flow), nitroprusside: nitroprusside 1.5 μg/min/kg intra-arterial; for blood flow ratio (stimulated flow/basal flow), serotonin: serotonin 1.5 μg/min/kg intra-arterial
Experimental: After measurement of lower limb blood pressure, a 3 Fr., end-hole infusion catheter (Tracker-i 8 TM, Target Therapeutics, San Jose, Calif.) was inserted into the left common carotid artery and advanced to the abdominal aorta. A 0.018 inch Doppler guidewire (Cardiometrics, Inc., Mountain View, Calif.) was advanced through the 3 Fr. infusion to the proximal segment of the internal iliac artery supplying the ischemic limb.
Vascular reactivity was assessed in this study measuring the variation of blood flow induced by vasodilators in the internal iliac artery of the ischemic limb. Blood flow was calculated from the Doppler measurements, using the formula QD =(πd^2 /4)(0.5×APV), where QD =Doppler-derived time average flow, d=vessel diameter, and APV=time average of the spectral peak velocity (Am. J Physiol., 1994;267:H1263-H1271). The mean velocity was estimated as 0.5×APV by assuming a time-averaged parabolic velocity profile across the vessel. […] The angiographic diameter of main collateral artery was determined using an automated edge-detection system that has been previously validated in vivo (Am. J Physiol., 1994;267:H1263-H1271). […] Center-lines were traced manually for a 10-mm long segment beginning immediately distal to the tip of the Doppler wire. The contours were subsequently detected automatically on the basis of the weighted sum of first and second derivative functions applied to the digitized brightness information. The vascular diameter was then measured at the site of the Doppler sample volume, i.e., 5 mm distal to the wire tip (Am. J Physiol., 1994;267:H1263-H1271). Cross-sectional area was calculated assuming a circular lumen.
The results of calculation for blood flow are expressed as the ratio of blood flow after vasodilator injection to basal blood flow, measured just before the injection.

[5] = tested on: rabbit ischemic hindlimb model; assay: Lower-limb blood pressure ratio (ischemic/normal limb); assay type: in vivo, New Zealand White rabbits; conditions: D40
Experimental: (§1) The animal model was a previously described rabbit ischemic hindlimb model (J. Clin. Invest. 93:662-670). […] A longitudinal incision was then performed, extending from the inguinal ligament to a point just proximal to the patella. Through this incision, the femoral artery and each of its branches were dissected free along its entire length. After dissecting the popliteal and saphenous arteries distally, the external iliac artery and all of the above arteries were ligated with 4.0 silk (Ethicon, Sommerville, N.J.). Finally, the femoral artery was completely excised from its proximal origin as a branch of the external iliac artery, to the point distally where it bifurcates to form the saphenous and popliteal arteries. Following excision of the femoral artery, retrograde propagation of thrombus leads to occlusion of the external iliac artery. Blood flow to the ischemic limb consequently becomes dependent upon collateral vessels issuing from the internal iliac artery.
Animals with limb ischemia were randomly divided into 4 groups. […] The ischemic control group consisted of 6 rabbits receiving no medication of any kind.

[6] = tested on: rabbit ischemic hindlimb model; conditions: D40 vs control
Experimental: Angiogenesis following resection of femoral artery was assessed at Day 10 (D10) and D40 post-operatively on functional (blood pressure ratio of ischemic to healthy limb, vasoreactivity and resistance) and morphological (angiography and capillary density) criteria.
as §1, with “Blood flow to the ischemic limb consequently becomes dependent upon collateral vessels issuing from the internal iliac artery.” left out
The four groups were investigated at D10 and D40 post-operatively at which time lower limb blood pressure, vasomotor reactivity, and angiographic score were evaluated. […]

[7] = tested on: Angiotensin Converting Enzyme; assay: Serum ACE activity (Sigma kit, FAPGG substrate) in treated ischemic rabbits; assay type: in vivo, New Zealand White rabbits; conditions: for residual ACE activity in serum (D14 serum activity/D10 serum activity): D14, 24 hours after injection, daily s.c. captopril 25 mg or quinaprilat 2 mg; for serum ACE activity as percentage of basal value: D40, after 5 days of discontinuation of injections; for serum ACE inhibition at any time: daily s.c. treatment, inferred from 24 hour trough at D14
Experimental: The serum ACE activity in the blood samples obtained from ear vein was determined using a kit obtained from Sigma (St. Louis, Mo.). The procedure used is a spectrophotometric method utilizing the synthetic tripeptide substrate N-[3-(2-furyl)acryloyl]-L-phenylalanylglycylglycine (FAPGG). ACE catalyzes hydrolysis of FAPGG to furylacryloylphenylalanine (FAP) and glycylglycine, which results in a decrease in absorbance at a wavelength of 340 nm. The ACE activity in the sample was determined by comparing the sample reaction rate to that obtained with an ACE calibrator.
The efficiency of the treatment is calculated as the percentage of the D10 serum activity according to the ratio: D14 serum activity/D10 serum activity.
For the latter drug, tablets were daily dissolved in saline serum and the resulting suspension was injected. Acetylcholine chloride, serotonin […] sulfate, and sodium nitroprusside were all purchased from Sigma Chemical Co., St. Louis, Mo.

[8] = tested on: Angiotensin Converting Enzyme; assay: Tissue ACE activity in thigh muscle homogenate of treated rabbits; assay type: in vivo, New Zealand White rabbits; conditions: for mean tissue ACE activity in thigh muscles: additional rabbits treated D10 up to D35; for residual tissue ACE activity, % of non-treated tissue activity: thigh muscle, treated D10 up to D35
Source text: Then, they were sacrificed, and muscles harvested for tissue in order to measure tissue ACE activity.
In order to determine the tissue ACE activity, muscles from the additional group were harvested, weighed, and homogenized in PBS. The obtained solution was used as a substrate for the ACE determination kit (Sigma, St. Louis, Mo.), and the result, divided by sample weight, is expressed as international units per gram of tissue (Ul/g).

[9] = Day 10 (basal value, before treatment)
[10] = Day 40 (5 days after discontinuation)

## CCOC(=O)[C@H](CCc1ccccc1)N[C@@H](C)C(=O)N1[C@H](C(=O)O)C[C@@H]2CCC[C@@H]21 [ramipril]
Coronary microvessels
  NO accumulation: promotion of NO accumulation

## NC(N)=NCCC[C@@H](N)C(=O)N[C@@H](CCCN=C(N)N)C(=O)N1CCC[C@H]1C(=O)N1C[C@H](O)C[C@H]1C(=O)NCC(=O)N[C@@H](Cc1cccs1)C(=O)N[C@@H](CO)C(=O)N1Cc2ccccc2C[C@@H]1C(=O)N1[C@H](C(=O)N[C@@H](CCCN=C(N)N)C(=O)O)C[C@@H]2CCCC[C@@H]21 [Icatibant]
B2-receptor
  effect on cardiac capillary length density induced by ACE inhibition: inhibited

## VEGF
[1]
  vascular resistance ratio (after injection/basal), acetylcholine: 0.35±0.03
  vascular resistance ratio (after injection/basal), nitroprusside: 0.29±0.04
  vascular resistance ratio (after injection/basal), serotonin: 0.77±0.04
[2]
  capillary density: 228.8±9.6 /mm^2
[3]
  angiographic score: 50.88±0.04%
[4]
  blood flow ratio (stimulated flow/basal flow), acetylcholine: 2.72±0.22
  blood flow ratio (stimulated flow/basal flow), nitroprusside: 2.66±0.35
  blood flow ratio (stimulated flow/basal flow), serotonin: 1.19±0.09
[5]
  ischemic/normal calf systolic blood pressure ratio: 0.74±0.03
[6]
  stimulation of angiogenesis (functional and morphological criteria): more developed angiogenesis

## C[C@H](CS)C(=O)N1CCC[C@H]1C(=O)O [captopril]
[2]
  capillary density: 147.2±11.9 /mm^2
Coronary microvessels
  NO accumulation: promotion of NO accumulation
[7]
  residual ACE activity in serum (D14 serum activity/D10 serum activity): 42.54±0.03%
  serum ACE activity as percentage of basal value: 92.87±0.04%
  serum ACE inhibition at any time: higher than 50%
[7]; [9]
  Serum ACE Activity: 55.94 ± 0.75 U/L
[7]; Day 14 (efficiency value)
  Serum ACE Activity: 23.92 ± 0.60 U/L
[7]; [10]
  Serum ACE Activity: 51.80 ± 0.80 U/L
[3]
  angiographic score: 35.03±0.02%
[8]
  mean tissue ACE activity in thigh muscles: 7.65±1.69 Ul/g
  residual tissue ACE activity, % of non-treated tissue activity: 61%

## C[C@H](N[C@@H](CCc1ccccc1)C(=O)O)C(=O)N1Cc2ccccc2C[C@H]1C(=O)O [quinaprilat]
[1]
  vascular resistance ratio (after injection/basal), acetylcholine: 0.32±0.03
  vascular resistance ratio (after injection/basal), nitroprusside: 0.28±0.02
  vascular resistance ratio (after injection/basal), serotonin: 0.94±0.06
[2]
  capillary density: 214.0±6.4 /mm^2
[7]
  residual ACE activity in serum (D14 serum activity/D10 serum activity): 41.53±0.02%
  serum ACE activity as percentage of basal value: 80.71±0.08%
  serum ACE inhibition at any time: higher than 50%
[7]; [9]
  Serum ACE Activity: 59.50 ± 1.38 U/L
[7]; Day 14 (efficiency value)
  Serum ACE Activity: 24.32 ± 0.46 U/L
[7]; [10]
  Serum ACE Activity: 46.40 ± 0.98 U/L
Body weight (Table 1); Day 10
  Body Weight: 4.19 ± 0.10 kg
Body weight (Table 1); Day 40
  Body Weight: 4.54 ± 0.20 kg
[3]
  angiographic score: 51.19%
[4]
  blood flow ratio (stimulated flow/basal flow), acetylcholine: 3.06±0.25
  blood flow ratio (stimulated flow/basal flow), nitroprusside: 2.94±0.24
  blood flow ratio (stimulated flow/basal flow), serotonin: 1.17±0.08
[5]
  ischemic/normal calf systolic blood pressure ratio: 0.86±0.03
[6]
  stimulation of angiogenesis (functional and morphological criteria): more developed angiogenesis; also recorded: improvement; also recorded: stimulates angiogenesis in vivo
[8]
  mean tissue ACE activity in thigh muscles: 1.69±0.70 Ul/g
  residual tissue ACE activity, % of non-treated tissue activity: 13%

## C[C@H](N[C@@H](CCc1ccccc1)C(=O)O)C(=O)N1CCC[C@H]1C(=O)O [enalaprilat]
Coronary microvessels
  NO accumulation: promotion of NO accumulation
